Measurements as given in publication PMC7778589, “Photosensitizer-based multimodal PSMA-targeting ligands for intraoperative detection of prostate cancer” (Theranostics, 2021).

Columns and labels:
[1] = system: LS174T-PSMA and LS174T xenografts; assay: Biodistribution of 111In-labeled multimodal ligands; assay type: in vivo, BALB/c nude mice; details: 0.3 nmol, 2 h p.i.
Procedure: Animal experiments were performed in 8-10 weeks old male BALB/c nude mice (Janvier). Animals were housed in individually ventilated cages (Blue line IVC, 4-5 mice per cage) under nonsterile standard conditions with cage enrichment present and free access to chlorophyll-free animal chow (Sniff GmbH) and water. Mice were subcutaneously inoculated with 3.0 x 10^6 LS174T-PSMA cells in the left flank and 1.5 × 10^6 LS174T cells in the right flank, diluted in 200 μL of complete RPMI 1640 medium. Eleven days after tumor cell inoculation when xenografts were approximately 0.1 cm^3, tracers were injected intravenously via the tail vein. The researchers were not blinded for the experimental groups and tumor-bearing mice were block-randomized into groups based on tumor size. All experiments were approved by the institutional Animal Welfare Committee of the Radboud university medical center and were conducted in accordance to the guidelines of the Revised Dutch Act on Animal Experimentation.
Mice were injected intravenously with 10 MBq ^111In-labeled PSMA ligands (0.3 nmol, molar activity 33.3 MBq/nmol) in PBS/0.5% BSA. Two hours post injection, mice were euthanized by CO2/O2-asphyxation and images were acquired with the IVIS fluorescence imaging system (Xenogen VivoVision IVIS Lumina II, Caliper Life Sciences), using an acquisition time of 10 s. Subsequently, µSPECT/CT images were acquired (U-SPECT II, MILabs) with a 1.0 mm diameter pinhole mouse collimator tube [26]. Mice were scanned for 30 min followed by a CT scan (spatial resolution 160 μm, 65 kV, 615 μA) for anatomical reference. µSPECT/CT scans were reconstructed with MILabs reconstruction software, using an ordered-subset expectation maximization algorithm, energy windows 154 - 188 keV and 220-270 keV, 3 iterations, 16 subsets, voxel size of 0.4 mm. SPECT/CT scans were analyzed and maximum intensity projections (MIPs) were created using the Inveon Research Workplace software version 4.1 (Siemens Preclinical Solutions). NIRF images were analyzed using Living Image software version 4.2 (Caliper Life Sciences). Tissues of interest were dissected, weighed and measured for radioactivity in a gamma-counter as described above. In the fluorescence-guided surgery feasibility study, pre-operative imaging was performed to visualize tumor tissue. After white light resection, NIRF imaging was repeated to assess if any remaining tumor was present.

[2] = target: T1, PSMA-expressing LS174T cells (LS174T-PSMA) (Homo sapiens, UniProt Q04609); assay: Binding and internalization assay with 111In-labeled ligands; assay type: cell-based; details: 2 h 37 °C
T1 construct: expressed in transfected cells; host or cells: LS174T colon carcinoma cells (human), stably transfected with pcDNA3.1-hPSMA
Procedure: Cell lines were purchased from the American Type Culture Collection. LS174T colon carcinoma cells were stably transfected with human PSMA using the plasmid pcDNA3.1-hPSMA and cultured in RPMI 1640 medium supplemented with 2 mM glutamine, 10% FCS, and 0.3 mg/ml G418 at 37 °C in a humidified atmosphere with 5% CO2 [5].
Binding and internalization characteristics of all ligands were compared using LS174T-PSMA and wildtype LS174T cells. Cells were cultured to confluency in 6-wells plates followed by incubation at 37 °C for 2 h in 1 ml binding buffer (RPMI/0.5% BSA) with 50,000 counts per minute (cpm) of ^111In-labeled ligand (0.1-0.25 pmol/well). Nonspecific binding was determined by coincubation with 2-(phosphonomethyl)pentane-1,5-dioic acid (2-PMPA, 21.57 µM). PSMA-specific binding was defined as nonspecific binding subtracted from total binding. To retrieve the membrane-bound fraction, cells were washed with PBS twice and incubated with acid buffer (0.1 M acetic acid, 154 mM NaCl, pH 2.6) for 10 minutes at 0 °C. After incubation, the membrane bound fraction (in acid buffer) was collected, cells were washed, lysed with 0.1 M NaOH and cell lysis (intercellular activity) was collected. Membrane-bound activity and intercellular activity fractions were measured in a gamma-counter (2480 WIZARD^2 Automatic Gamma Counter, PerkinElmer), [25]. Human serum was used to determine the in vitro serum stability of the multimodal ligands (0.8 µg/ml serum, 5 MBq/μg labeling). After incubation for 2 h at 37°C, serum proteins were precipitated by adding a 1:1 (v/v) volume of acetonitrile followed by 5 min of centrifugation at 3220×g. Stability was evaluated by RP-HPLC analysis after 2 h of incubation at 37 °C. […] Experimental details are described in the supplementary materials and methods.

[3] = Lipophilicity, PBS/n-octanol; assay type: physicochemical; details: radiolabeled ligand
Procedure: Tubes were vortexed vigorously for 1 min and centrifuged for 5 min at 201×g for phase separation. The concentration of radioactivity in a defined volume of each layer was measured in a well-type gamma-counter.

T1 sequence (Q04609 whole entry): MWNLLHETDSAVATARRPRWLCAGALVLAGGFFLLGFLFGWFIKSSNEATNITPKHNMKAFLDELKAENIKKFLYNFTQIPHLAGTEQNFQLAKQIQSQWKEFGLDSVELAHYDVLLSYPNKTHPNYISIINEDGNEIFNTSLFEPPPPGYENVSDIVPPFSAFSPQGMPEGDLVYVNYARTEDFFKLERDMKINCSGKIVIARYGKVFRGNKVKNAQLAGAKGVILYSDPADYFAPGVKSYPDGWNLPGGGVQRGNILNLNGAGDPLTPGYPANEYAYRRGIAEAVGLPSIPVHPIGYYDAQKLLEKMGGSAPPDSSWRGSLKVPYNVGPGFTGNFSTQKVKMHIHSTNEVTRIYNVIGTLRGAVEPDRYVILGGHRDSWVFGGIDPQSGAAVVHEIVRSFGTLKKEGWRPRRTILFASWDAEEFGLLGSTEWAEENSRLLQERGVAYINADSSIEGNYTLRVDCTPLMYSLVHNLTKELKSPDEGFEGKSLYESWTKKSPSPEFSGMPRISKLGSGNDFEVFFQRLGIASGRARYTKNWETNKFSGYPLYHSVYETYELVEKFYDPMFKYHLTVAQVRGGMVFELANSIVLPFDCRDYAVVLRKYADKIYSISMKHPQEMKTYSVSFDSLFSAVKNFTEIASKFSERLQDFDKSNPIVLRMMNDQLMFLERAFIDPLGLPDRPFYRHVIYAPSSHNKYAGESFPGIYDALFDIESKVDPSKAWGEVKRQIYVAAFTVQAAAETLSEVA

Row | Adrenals [1] [%ID/g] | Blood [1] [%ID/g] | Bone [1] [%ID/g] | Bone marrow [1] [%ID/g] | Duodenum [1] [%ID/g] | Heart [1] [%ID/g] | Kidney [1] [%ID/g] | Liver [1] [%ID/g] | Lung [1] [%ID/g] | Muscle [1] [%ID/g] | Pancreas [1] [%ID/g] | Prostate [1] [%ID/g] | Salivary glands [1] [%ID/g] | Spleen [1] [%ID/g] | Stomach [1] [%ID/g] | Tumor- LS174T [1] [%ID/g] | Tumor/Blood ratio [1] | Tumor/Kidney ratio [1] | Tumor/Liver ratio [1] | Tumor/Muscle ratio [1] | Structure (SMILES) | other results
1 | 2.5 | 0.3 | 1.2 | 0.4 | 0.6 | 0.5 | 112.8 | 1 ± 0.2 | 0.7 | 0.3 | 0.4 | 1.4 | 0.6 | 3.1 ± 1 | 0.5 | 0.5 | 56 | 0.2 | 15.2 | 72.3 | C[Si](C)(CCC[N+](CCCS(=O)(=O)O)(CCCS(=O)(=O)O)CCCS(=O)(=O)O)O[Si-2]123(O[Si](C)(C)CCC[N+](CCCS(=O)(=O)O)(CCCS(=O)(=O)O)CCCS(=O)(=O)O)n4c5c6ccccc6c4N=C4c6cccc(OCCCOC(=O)NCCCCCC(=O)NCCCC[C@H](NC(=O)CCC(C(=O)O)N7CCN(CC(=O)O)CCN(CC(=O)O)CCN(CC(=O)O)CC7)C(=O)N[C@@H](CCC(=O)O)C(=O)N[C@@H](CCC(=O)O)C(=O)N[C@@H](CCC(=O)O)C(=O)NCCCCCC(=O)NCCCC[C@H](NC(=O)N[C@@H](CCC(=O)O)C(=O)O)C(=O)O)c6C(=[N+]41)N=c1c4ccccc4c(n12)=NC1=[N+]3C(=N5)c2ccccc21.[Na+].[Na+].[Na+].[Na+] (stereo partly drawn) [N143] | Tumor/Negative tumor ratio [1]: 36.7; Tumor/Prostate ratio [1]: 32.9; Tumor/Salivary gland ratio [1]: 28.8; Tumor/Spleen ratio [1]: 5.2; Internalized fraction [2]: 3.6 ± 0.22; Membrane bound fraction [2]: 0.5 ± 0.20; LogD [3]: -2.4 ± 0.10
2 | 0.7 | 0.2 | 0.2 | 0.4 | 0.2 | 0.3 | 51.4 | 0.6 | 0.3 | 0.1 | 0.2 | 0.3 | 0.3 | 0.6 | 0.2 | 0.4 | 62.6 | 0.2 | 15.9 | 106.4 | C[Si](C)(CCC[N+](CCCS(=O)(=O)O)(CCCS(=O)(=O)O)CCCS(=O)(=O)O)O[Si-2]123(O[Si](C)(C)CCC[N+](CCCS(=O)(=O)O)(CCCS(=O)(=O)O)CCCS(=O)(=O)O)n4c5c6ccccc6c4N=C4c6cccc(OCCCOC(=O)NCCCCCC(=O)NCCCC[C@H](NC(=O)CCOCCOCCOCCOCCNC(=O)CN7CCN(CC(=O)O)CCN(CC(=O)O)CCN(CC(=O)O)CC7)C(=O)N[C@H](Cc7ccccc7)C(=O)N[C@@H](CCC(=O)O)C(=O)N[C@@H](CCC(=O)O)C(=O)NCCCCCC(=O)NCCCC[C@H](NC(=O)N[C@@H](CCC(=O)O)C(=O)O)C(=O)O)c6C(=[N+]41)N=c1c4ccccc4c(n12)=NC1=[N+]3C(=N5)c2ccccc21.[Na+].[Na+].[Na+].[Na+] [NJ27] | Tumor+ LS174T-PSMA [1]: 9.1 ± 2 %ID/g; Tumor/Negative tumor ratio [1]: 27.1; Tumor/Prostate ratio [1]: 32.7; Tumor/Salivary gland ratio [1]: 33.2; Tumor/Spleen ratio [1]: 17.3; Internalized fraction [2]: 1.1 ± 0.05; Membrane bound fraction [2]: 0.3 ± 0.04; LogD [3]: -2.3 ± 0.11
3 | 1.2 | 0.7 | 0.4 | 0.2 | 0.3 | 0.3 | 31.9 | 0.8 | 0.4 | 0.2 | 0.2 | 0.9 | 0.4 | 1.1 | 0.3 | 0.4 | 14.9 | 0.2 | 6.1 | 39.3 | C[Si](C)(CCC[N+](CCCS(=O)(=O)O)(CCCS(=O)(=O)O)CCCS(=O)(=O)O)O[Si-2]123(O[Si](C)(C)CCC[N+](CCCS(=O)(=O)O)(CCCS(=O)(=O)O)CCCS(=O)(=O)O)n4c5c6ccccc6c4N=C4c6cccc(OCCCOC(=O)NCCCCCC(=O)NCCCC[C@H](NC(=O)CCC(C(=O)O)N7CCN(CC(=O)O)CCN(CC(=O)O)CCN(CC(=O)O)CC7)C(=O)N[C@H](Cc7ccccc7)C(=O)NCCCCCC(=O)NCCCC[C@H](NC(=O)N[C@@H](CCC(=O)O)C(=O)O)C(=O)O)c6C(=[N+]41)N=c1c4ccccc4c(n12)=NC1=[N+]3C(=N5)c2ccccc21.[Na+].[Na+].[Na+].[Na+] (stereo partly drawn) [N046] | Tumor+ LS174T-PSMA [1]: 4.3 %ID/g; Tumor/Negative tumor ratio [1]: 10.8; Tumor/Prostate ratio [1]: 10.7; Tumor/Salivary gland ratio [1]: 12.5; Tumor/Spleen ratio [1]: 4.4 ± 1; Internalized fraction [2]: 2.0 ± 0.39; Membrane bound fraction [2]: 0.8 ± 0.06; LogD [3]: -2.4 ± 0.03
4 | 1.3 | 0.2 | 0.5 | 0.3 | 0.3 | 0.3 | 70.3 | 0.6 | 0.4 | 0.2 | 0.2 | 0.5 | 0.4 | 1.1 | 0.3 | 0.5 | 71.9 | 0.2 | 21.3 | 110 | C[Si](C)(CCC[N+](CCCS(=O)(=O)O)(CCCS(=O)(=O)O)CCCS(=O)(=O)O)O[Si-2]123(O[Si](C)(C)CCC[N+](CCCS(=O)(=O)O)(CCCS(=O)(=O)O)CCCS(=O)(=O)O)n4c5c6ccccc6c4N=C4c6cccc(OCCCOC(=O)NCCCCCC(=O)NCCCC[C@H](NC(=O)CCC(C(=O)O)N7CCN(CC(=O)O)CCN(CC(=O)O)CCN(CC(=O)O)CC7)C(=O)N[C@@H](CCC(=O)O)C(=O)N[C@@H](CCC(=O)O)C(=O)NCCCCCC(=O)NCCCC[C@H](NC(=O)N[C@@H](CCC(=O)O)C(=O)O)C(=O)O)c6C(=[N+]41)N=c1c4ccccc4c(n12)=NC1=[N+]3C(=N5)c2ccccc21.[Na+].[Na+].[Na+].[Na+] (stereo partly drawn) [N144] | Tumor+ LS174T-PSMA [1]: 11.7 %ID/g; Tumor/Negative tumor ratio [1]: 28.8; Tumor/Prostate ratio [1]: 32; Tumor/Salivary gland ratio [1]: 30.3; Tumor/Spleen ratio [1]: 12.3; Internalized fraction [2]: 2.5 ± 0.05; Membrane bound fraction [2]: 0.3 ± 0.03; LogD [3]: -2.4 ± 0.01
